Reference: US20130143968A1, “Methods and compositions for the treatment of diabetes and related symtoms” (Emmaus Medical, Inc., priority 2011, published 2013)

Assays:
[1] = HA1C lowering in a person ingesting L-glutamine; type: in vivo; conditions: one person, baseline 6.9%; 30 g per day as an aqueous solution, ingested; after three months
Description: The person ingested 30 g of L-glutamine per day as an aqueous solution. After three months of L-glutamine administration, the person's Hb A1C level was measured at 6.1%.

[2] = Triglyceride lowering in a person ingesting L-glutamine; type: in vivo; conditions: one person, baseline 500 mg/dL; 30 g per day as an aqueous solution, ingested; after three months
Description: The person ingested 30 g of L-glutamine per day as an aqueous solution. After three months of L-glutamine administration, the person's triglyceride blood level was measured at 150 mg/dL.

With `NC(=O)CC[C@H](N)C(=O)O` [L-glutamine] the “glycolated hemoglobin level (Hb A1C level)” value [1] was 6.1% and the triglyceride blood level [2] was 150 mg/dL.
